Results: patent US20170311602A1, “METHODS AND COMPOSITIONS FOR THE CONTROL OF FUNGAL PATHOGENS IN CROP PLANTS” (Monsanto Technology LLC, priority 2014, published 2017)

Key:
Type in all cases: in vivo
[1] = tested on: corn stalk rot susceptible hybrids; assay: Greenhouse seedling emergence trial for seed safety of treated corn seed; conditions: number of plants emerged at day 7, five plants per pot
Procedure: Seeds treated with chemistry were evaluated for seed safety in greenhouse emergence trials. Seed treatment active ingredients were combined in a slurry mix with colorant, polymer, and water at the recommended rates and allowed to mix thoroughly. Using a Gustafson BMC lab treater the seed batch was deposited in the BMC coater and treatment slurry was injected and allowed to tumble for 35-40 seconds before being ejected into a bulk collection bin and transferred to a paper storage bag. Standard corn stalk rot susceptible hybrids were planted using six pot replicates of five plants per pot. The treatments were randomized in RCBD, blocked by GH watering trays. Planting media consisted of 3.5 inch pots with the following media: US10 soil and 50/50 mix of US10/REDIEARTH. Replicates were placed perpendicular to the greenhouse temperature gradient.
Initial daily emergence counts at spike emergence of first treatment, continued until emergence was complete in untreated control (7-10 days after planting). The final stand was calculated as the number of plants emerged at day 7. The stand AUC was calculated as the area under the emergence curve.

[2] = tested on: Colletotrichum graminicola; assay: Field trial, Anthracnose stalk rot disease severity after stalk wounding and inoculation; conditions: 60 g ai/100 kg seed; Acceleron 2013 base; N=3 locations; control (surface wounding) 2.9
Procedure: Field trials were conducted to evaluate seed treatments for efficacy and yield. Field plots contained a single row or up to 4 rows by 20-40 feet. Smallest plot size was a single row by 20 feet. Four replications were typically used. The hybrids selected for the study were typically moderately susceptible to Anthracnose stalk rot, which indicates a susceptibility rating of at least 5-6 on a 9 point scale (1=highly resistant, 9=highly susceptible). […] The typical growth stage for field inoculation was […]). For disease ratings, stalks were surface wounded using implements with needles that either provided shallow scratches on the surface of the stalk ( 1 cm depth) or shallow piercing wounds ( 1 cm depth). Concurrent with surface wounding, a spore suspension of Colletotrichum graminicola (C. graminicola) conidia is sprayed onto wounded area or injected into shallow wounds. The total volume of spore suspension applied was in the range of 1-5 mL. […] Disease development was monitored in control treatments and disease evaluations were usually targeted when disease index rating reached approximately 5 on a 1-9 scale in control treatments. […] 10 stalks were assessed per plot. […] The stalks were split and the number of internodes with disease symptoms was counted starting at the internode above top node with brace roots (disease incidence rating). […]

[3] = tested on: Colletotrichum graminicola; assay: Field yield trial, seed treatments in inoculated soil plots; conditions: Acceleron 2013 base, N=10 locations, control 164.4
Procedure: (§1) Field trials were conducted to evaluate seed treatments for efficacy and yield. Field plots contained a single row or up to 4 rows by 20-40 feet. Smallest plot size was a single row by 20 feet. Four replications were typically used. The hybrids selected for the study were typically moderately susceptible to Anthracnose stalk rot, which indicates a susceptibility rating of at least 5-6 on a 9 point scale (1=highly resistant, 9=highly susceptible).
(§2) The typical growth stage for field inoculation was VT/R1 (tasseling/silking). For disease ratings, stalks were surface wounded using implements with needles that either provided shallow scratches on the surface of the stalk (˜1 cm depth) or shallow piercing wounds (˜1 cm depth). Concurrent with surface wounding, a spore suspension of Colletotrichum graminicola (C. graminicola) conidia is sprayed onto wounded area or injected into shallow wounds. The total volume of spore suspension applied was in the range of 1-5 mL. Yield trials were soil inoculated or non-inoculated (natural pressure). For soil inoculation the fungus was grown on sorghum seed and the infested sorghum seed was placed in furrow at planting of the trials.
(§3) Yield was determined in the following manner. The center two rows of the plot were harvested or both rows if it was a two row plot. The weight and percent moisture were recorded for each plot grain sample. The recorded plot weight and % moisture were converted to standardized weight using standard moisture of 15.5%. Each plot was normalized to kg/ha by interpolating plot yield area to hectares. Yield in bushels/acre (bu/A) was determined by interpolating plot yield area to acre and conversion to bu/A using a standard corn bushel weight of 56 lb.
All seeds, including control, were treated with Acceleron 2013 commercial seed treatment (disease control+insect control) as a base. N=10 locations.

[4] = tested on: corn; assay: Field yield trials, seed treatments in non-inoculated soil plots (natural pressure); conditions: Acceleron 2013 base; for Yield Trial 1: N=22 locations, control 174.9; for Yield Trial 2: N=24 locations, control 174.4
Procedure: as §1, §2, §3
All seeds, including control, were treated with Acceleron 2013 commercial seed treatment (disease+insect control) as a base. N=22 locations.
All seeds, including control, were treated with Acceleron 2013 commercial seed treatment (disease+insect control) as a base. N=24 locations.

[5] = tested on: Fusarium verticillioides; assay: Tray seedling test, efficacy of seed treatment against Fusarium verticillioides; conditions: FS100, 30 g ai/100 kg seeds; untreated (% damage) 26%
Procedure: (§4) The seed tested (Amadeo harvest 2008, TKW 331,3) was seeded in trays 20×20×6 cm, with 9 holes for water release in field soil/quartz sand mix (1:1). Two repetitions with 25 kernels each were treated using standard seed treatment techniques. Each tray contained a single isolate of either Fusarium verticillioides G679, Fusarium verticillioides S039/07, Fusarium verticillioides S149/08, Colletotrichum graminicola BF0911 or Colletotrichum graminicola CG-1. The fungi were grown on sterile wheat grains. Thereafter, wheat grains were roughly ground after incubation and dried. For inoculation, either 5 or 15 ml of inoculum were scattered between the seeds at sowing, followed by incubation for 7 days at 10° C., followed by 7 days 24° C./15° C. (day/night period). Plants were evaluated for a) initial emergence (number of plants), b) final emergence (number of plants), c) disease level. Seedlings were classified in 3 categories: low, moderate or sevre necrosis. The disease score was calculated as follows: […]

[6] = tested on: Colletotrichum graminicola; assay: Tray seedling test, efficacy of seed treatment against Colletotrichum graminicola; conditions: FS100, 30 g ai/100 kg seeds; untreated (% damage) 22%
Procedure: as §4

Row | SMILES | Final Stand ([1]; 25 g ai/100 kg seed) | Final Stand ([1]; 50 g ai/100 kg seed) | Final Stand ([1]; 100 g ai/100 kg seed) | Final Stand ([1]; 200 g ai/100 kg seed) | Final Stand ([1]; 300 g ai/100 kg seed) | Final Stand ([1]; 400 g ai/100 kg seed) | Disease Severity (nodes ≧50% necrosis) [2] [nodes ≧50% necrosis] | Yield ([3]; 30 g/100 Kg seed) [bu/A] | Yield ([3]; 60 g/100 Kg seed) [bu/A] | Yield ([3]; 90 g/100 Kg seed) [bu/A] | Yield Trial 1 ([4]; 30 g/100 Kg seed) [Bu/acre] | Yield Trial 2 ([4]; 30 g/100 Kg seed) [Bu/acre] | Yield Trial 1 ([4]; 60 g/100 Kg seed) [Bu/acre] | Yield Trial 2 ([4]; 60 g/100 Kg seed) [Bu/acre] | Yield Trial 2 ([4]; 90 g/100 Kg seed) [Bu/acre] | Efficacy against Fusarium verticillioides (av. of 3 isolates) [5] [% Abbott] | Efficacy against Colletotrichum graminicola (av. 2 isolates) [6] [% Abbott]
1 | CO/N=C(/C1=NOCCO1)c1ccccc1Oc1ncnc(Oc2ccccc2Cl)c1F [Fluoxastrobin, fluoxastrobin] | 4.79 | 4.67 | 4.63 | 4.83 | 4.58 | 4.99 | 1.5 | 169.4 | 172 | 171.8 | 175.9 | 175.9 | 179.1 | 177.6 | 176.3 | 3 | 88
2 | OC(Cc1ccccc1Cl)(Cn1nc[nH]c1=S)C1(Cl)CC1 (centres unmarked) [Prothioconazole, prothioconazole] | 4.88 | 4.75 | 4.58 | 4.92 | – | – | 1.6 | 172.4 | 173.6 | 174 | 177.1 | 176.6 | 178.6 | 178.3 | 175.2 | 47 | 51
